Experimental data published in patent US20210300936A1, “PYRAZOLOTRIAZOLOPYRIMIDINE DERIVATIVES AS A2A RECEPTOR ANTAGONIST” (BEIGENE, LTD., priority 2018, published 2021).
pIC50, pKi: −log10 of the molar value.

Assays:
[1] = molecular target: human A2A receptor (A2AR) (Homo sapiens, UniProt P29274); assay: Luciferase reporter assay (HEK293-A2AR-luc2p/CRE/Hygro cells, 3 nM CGS21680); type: cell-based; settings: 3 nM CGS21680, 5 h incubation
Summary of the method: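 HEK293 cells stably expressing A2AR with a CRE-luc2P reporter were seeded in 1% FBS with 1 U/mL adenosine deaminase. After 18 h, cells got 3 nM CGS21680 plus antagonist at 0.1–10000 nM for 5 h, followed by a luciferase readout. IC50 is relative to the 3 nM CGS21680 signal, set as 100%.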

[2] = molecular target: T1, human adenosine receptor A1 (A1R) (Homo sapiens, UniProt P30542); assay: Adenosine receptor binding assay, radioligand competitive binding, [3H]DPCPX; settings: membrane homogenates from CHO cells transfected with A1R, 1 nM [3H]DPCPX
T1 construct: host or cells: CHO cells (membrane homogenates)
T1 sequence (P30542 1-326): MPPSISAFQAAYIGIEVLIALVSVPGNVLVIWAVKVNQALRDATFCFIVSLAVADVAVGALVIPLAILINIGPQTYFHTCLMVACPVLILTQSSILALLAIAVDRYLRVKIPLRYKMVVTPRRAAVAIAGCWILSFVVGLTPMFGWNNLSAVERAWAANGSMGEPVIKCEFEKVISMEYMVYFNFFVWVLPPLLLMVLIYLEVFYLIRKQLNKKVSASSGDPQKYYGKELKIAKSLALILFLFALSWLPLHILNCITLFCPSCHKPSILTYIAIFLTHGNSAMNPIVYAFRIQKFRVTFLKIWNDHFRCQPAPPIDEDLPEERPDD
Experimental: (§1) Binding affinity of test compounds to four human adenosine receptors, A1, A2A, A2B and A3 was determined in radioligand competitive binding assay (conducted by Cerep, France) using following protocols. For A1 receptor (A1R), membrane homogenates from CHO cells transfected with A1R were incubated for 60 min at 22° C. with 1 nM [3H]DPCPX in the absence or presence of the test compound in a buffer containing 50 mM Tris-HCl (pH 7.4), 5 mM MgCl2, 1 mM EDTA/Tris and 2 UI/mL ADA. For A2AR, membrane homogenates from HEK293 cells transfected with A2AR were incubated for 120 min at 22° C. with 6 nM [3H]CGS21680 in the absence or presence of the test compound in a buffer containing 50 mM Tris-HCl (pH 7.4), 10 mM MgCl2, and 2 UI/mL ADA. For A2B receptor (A2BR), membrane homogenates from HEK293 cells transfected with A2BR were incubated for 60 min at 22° C. with 5 nM [3H]CPX in the absence or presence of the test compound in a buffer containing 10 mM Hepes/Tris (pH 7), 1 mM MgCl2, and 1 mM EDTA. For A3 receptor (A3R), membrane homogenates from HEK293 cells transfected with A3R were incubated for 120 min at 22° C. with 0.15 nM [125I]AB-MECA in the absence or presence of the test compound in a buffer containing 50 mM Tris-HCl (pH 7.4), 5 mM MgCl2, 1 mM EDTA and 2 UI/mL ADA. Nonspecific binding was determined in the presence of unlabeled 1 μM DPCPX, 10 μM NECA, 100 μM NECA, and 1 μM IB-MECA in A1R, A2AR, A2BR, A3R binding assays, respectively. Following incubation, the samples are rapidly filtered and washed with ice-cold 50 mM Tris-HCl. Then filters are dried and counted for radioactivity in a scintillation counter (Topcount, Packard) using a scintillation cocktail (Microscint 0, Packard). Duplicate experiments were performed for each assay. The results are expressed as a percent inhibition of control radioligand specific binding.

[3] = molecular target: T2, human adenosine receptor A2A (A2AR) (Homo sapiens, UniProt P29274); assay: Adenosine receptor binding assay, radioligand competitive binding, [3H]CGS21680; settings: membrane homogenates from HEK293 cells transfected with A2AR, 6 nM [3H]CGS21680
T2 construct: host or cells: HEK293 cells (membrane homogenates)
T2 sequence (P29274 whole entry): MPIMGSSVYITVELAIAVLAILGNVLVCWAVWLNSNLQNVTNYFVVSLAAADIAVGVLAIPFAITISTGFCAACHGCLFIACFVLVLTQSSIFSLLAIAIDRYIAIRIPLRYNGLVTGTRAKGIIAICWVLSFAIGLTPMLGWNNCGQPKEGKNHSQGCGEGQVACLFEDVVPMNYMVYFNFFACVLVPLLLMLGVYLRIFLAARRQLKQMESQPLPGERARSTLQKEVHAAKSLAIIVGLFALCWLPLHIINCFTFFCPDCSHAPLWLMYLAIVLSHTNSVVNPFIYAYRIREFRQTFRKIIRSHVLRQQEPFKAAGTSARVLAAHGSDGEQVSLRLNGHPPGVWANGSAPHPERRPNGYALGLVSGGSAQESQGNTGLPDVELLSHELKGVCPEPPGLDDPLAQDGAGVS
Experimental: as §1

human A2A receptor (A2AR), sequence (P29274 whole entry): as above

Row | pIC50 [1] | pKi [2] | pKi [3] | SMILES
1 | 7.30 | 6.51 | 8.22 | CCCC(C(=O)N1CCN(c2ccc(OCCOC)cc2)CC1)n1ncc2c1nc(N)n1nc(-c3ccco3)nc21 (single isomer, unassigned) [Compound A5b, 2-(5-amino-2-(furan-2-yl)-7H-pyrazolo[4,3-e][1,2,4]triazolo[1,5-c]pyrimidin-7-yl)-1-(4-(4-(2-methoxyethoxy)phenyl)piperazin-1-yl)pentan-1-one]
2 | 6.84 | 6.59 | 8.25 | CCCCC(C(=O)N1CCN(c2ccc(OCCOC)cc2)CC1)n1ncc2c1nc(N)n1nc(-c3ccco3)nc21 (single isomer, unassigned) [Compound A10b, 2-(5-amino-2-(furan-2-yl)-7H-pyrazolo[4,3-e][1,2,4]triazolo[1,5-c]pyrimidin-7-yl)-1-(4-(4-(2-methoxyethoxy)phenyl)piperazin-1-yl)hexan-1-one]
3 | 7.57 | 6.72 | 8.21 | COCCOc1ccc(N2CCN(C(=O)C(c3ccccc3)n3ncc4c3nc(N)n3nc(-c5ccco5)nc43)CC2)cc1 (single isomer, unassigned) [Compound A13a]
4 | 9.52 | 7.24 | 8.82 | COCCOc1ccc(N2CCN(C(=O)C(CC(C)C)n3ncc4c3nc(N)n3nc(-c5ccco5)nc43)CC2)cc1 (single isomer, unassigned) [Compound A16a]
5 | 7.02 | 6.11 | 7.82 | COCCOc1ccc(N2CCN(C(=O)C(CC(C)C)n3ncc4c3nc(N)n3nc(-c5ccco5)nc43)CC2)cc1 (single isomer, unassigned) [Compound A16b]
6 | 9.22 | 7.74 | 8.77 | CC(C)CC(C(=O)N1CCN(c2ccc(F)cc2F)CC1)n1ncc2c1nc(N)n1nc(-c3ccco3)nc21 (single isomer, unassigned) [Compound A22b]
7 | 9.00 | 6.92 | 8.85 | CCCC(C(=O)N1CCN(c2ccc(OCCOC)cc2F)CC1)n1ncc2c1nc(N)n1nc(-c3ccco3)nc21 (single isomer, unassigned) [Compound A24a]
8 | 6.47 |  |  | COCCOCCOc1ccc(N2CCN(C(=O)C(C(C)C)n3cc4c(nc(N)n5nc(-c6ccco6)nc45)n3)CC2)cc1 (stereo not drawn) [Compound C12, 2-(5-amino-2-(furan-2-yl)-8H-pyrazolo[4,3-e][1,2,4]triazolo[1,5-c]pyrimidin-8-yl)-1-(4-(4-(2-(2-methoxyethoxy)ethoxy)phenyl)piperazin-1-yl)-3-methylbutan-1-one]
9 | 7.90 |  |  | CC(C(=O)N1CCN(c2ccc(OCCN)cc2)CC1)n1cc2c(nc(N)n3nc(-c4ccco4)nc23)n1 (stereo not drawn) [Compound C13, 2-(5-amino-2-(furan-2-yl)-8H-pyrazolo[4,3-e][1,2,4]triazolo[1,5-c]pyrimidin-8-yl)-1-(4-(4-(2-aminoethoxy)phenyl)piperazin-1-yl)propan-1-one]
10 | 8.02 |  |  | COCCOc1ccc(N2CCN(C(=O)C(c3ccccc3)n3cc4c(nc(N)n5nc(-c6ccco6)nc45)n3)CC2)cc1 (stereo not drawn) [Compound C14, 2-(5-amino-2-(furan-2-yl)-8H-pyrazolo[4,3-e][1,2,4]triazolo[1,5-c]pyrimidin-8-yl)-1-(4-(4-(2-methoxyethoxy)phenyl)piperazin-1-yl)-2-phenylethan-1-one]
11 | 7.77 |  |  | COCCOCCOc1ccc(N2CCN(C(=O)C(c3ccccc3)n3cc4c(nc(N)n5nc(-c6ccco6)nc45)n3)CC2)cc1 (stereo not drawn) [Compound C15, 2-(5-amino-2-(furan-2-yl)-8H-pyrazolo[4,3-e][1,2,4]triazolo[1,5-c]pyrimidin-8-yl)-1-(4-(4-(2-(2-methoxyethoxy)ethoxy)phenyl)piperazin-1-yl)-2-phenylethan-1-one]
12 | 8.31 |  |  | COCCOc1ccc(N2CCN(C(=O)C(C3CC3)n3cc4c(nc(N)n5nc(-c6ccco6)nc45)n3)CC2)cc1 (stereo not drawn) [Compound C16, 2-(5-amino-2-(furan-2-yl)-8H-pyrazolo[4,3-e][1,2,4]triazolo[1,5-c]pyrimidin-8-yl)-2-cyclopropyl-1-(4-(4-(2-methoxyethoxy)phenyl)piperazin-1-yl)ethan-1-one]
13 | 7.05 |  |  | COCCOc1ccc(N2CCN(C(=O)C(CC(C)C)n3cc4c(nc(N)n5nc(-c6ccco6)nc45)n3)CC2)cc1 (stereo not drawn) [Compound C17, 2-(5-amino-2-(furan-2-yl)-8H-pyrazolo[4,3-e][1,2,4]triazolo[1,5-c]pyrimidin-8-yl)-1-(4-(4-(2-methoxyethoxy)phenyl)piperazin-1-yl)-4-methylpentan-1-one]
14 | 7.04 |  |  | COCCOCCOc1ccc(N2CCN(C(=O)C(CC(C)C)n3cc4c(nc(N)n5nc(-c6ccco6)nc45)n3)CC2)cc1 (stereo not drawn) [Compound C18, 2-(5-amino-2-(furan-2-yl)-8H-pyrazolo[4,3-e][1,2,4]triazolo[1,5-c]pyrimidin-8-yl)-1-(4-(4-(2-(2-methoxyethoxy)ethoxy)phenyl)piperazin-1-yl)-4-methylpentan-1-one]
15 | 7.33 |  |  | CC(C(=O)N1CCN(c2ccc(OCCN(C)C)cc2)CC1)n1cc2c(nc(N)n3nc(-c4ccco4)nc23)n1 (stereo not drawn) [Compound C19, 2-(5-amino-2-(furan-2-yl)-8H-pyrazolo[4,3-e][1,2,4]triazolo[1,5-c]pyrimidin-8-yl)-1-(4-(4-(2-(dimethylamino)ethoxy)phenyl)piperazin-1-yl)propan-1-one]
16 | 5.69 |  |  | COCCOc1ccc(N2CCN(C(=O)C(Cc3ccccc3)n3cc4c(nc(N)n5nc(-c6ccco6)nc45)n3)CC2)cc1 (stereo not drawn) [Compound C20, 2-(5-amino-2-(furan-2-yl)-8H-pyrazolo[4,3-e][1,2,4]triazolo[1,5-c]pyrimidin-8-yl)-1-(4-(4-(2-methoxyethoxy)phenyl)piperazin-1-yl)-3-phenylpropan-1-one]
17 | 7.00 |  |  | CCCC(C(=O)N1CCN(c2ccc(F)cc2F)CC1)n1cc2c(nc(N)n3nc(-c4ccco4)nc23)n1 (stereo not drawn) [Compound C21, 2-(5-amino-2-(furan-2-yl)-8H-pyrazolo[4,3-e][1,2,4]triazolo[1,5-c]pyrimidin-8-yl)-1-(4-(2,4-difluorophenyl)piperazin-1-yl)pentan-1-one]
18 | 7.89 |  |  | COCCOCCOc1ccc(N2CCN(C(=O)C(C3CC3)n3cc4c(nc(N)n5nc(-c6ccco6)nc45)n3)CC2)cc1 (stereo not drawn) [Compound C22, 2-(5-amino-2-(furan-2-yl)-8H-pyrazolo[4,3-e][1,2,4]triazolo[1,5-c]pyrimidin-8-yl)-2-cyclopropyl-1-(4-(4-(2-(2-methoxyethoxy)ethoxy)phenyl)piperazin-1-yl)ethan-1-one]
19 | 7.16 |  |  | CC(C)CC(C(=O)N1CCN(c2ccc(F)cc2F)CC1)n1cc2c(nc(N)n3nc(-c4ccco4)nc23)n1 (stereo not drawn) [Compound C23, 2-(5-amino-2-(furan-2-yl)-8H-pyrazolo[4,3-e][1,2,4]triazolo[1,5-c]pyrimidin-8-yl)-1-(4-(2,4-difluorophenyl)piperazin-1-yl)-4-methylpentan-1-one]
20 | 7.45 |  |  | CNCCOc1ccc(N2CCN(C(=O)C(C)n3cc4c(nc(N)n5nc(-c6ccco6)nc45)n3)CC2)cc1 (stereo not drawn) [Compound C24, 2-(5-amino-2-(furan-2-yl)-8H-pyrazolo[4,3-e][1,2,4]triazolo[1,5-c]pyrimidin-8-yl)-1-(4-(4-(2-(methylamino)ethoxy)phenyl)piperazin-1-yl)propan-1-one]
21 | 7.66 |  |  | COCCOc1ccc(N2CCN(C(=O)C(C)(c3ccccc3)n3cc4c(nc(N)n5nc(-c6ccco6)nc45)n3)CC2)cc1 (stereo not drawn) [Compound C25, 2-(5-amino-2-(furan-2-yl)-8H-pyrazolo[4,3-e][1,2,4]triazolo[1,5-c]pyrimidin-8-yl)-1-(4-(4-(2-methoxyethoxy)phenyl)piperazin-1-yl)-2-phenylpropan-1-one]
22 |  | 6.47 |  | COCCOc1ccc(N2CCN(CCn3ncc4c3nc(N)n3nc(-c5ccco5)nc43)CC2)cc1 [Preladenant, preladenant, reference compound]
